Experimental data published in patent US20220056043A1, “NITROGEN-CONTAINING FUSED CYCLIC COMPOUND, PREPARATION METHOD THEREFOR AND USE THEREOF” (SICHUAN KELUN-BIOTECH BIOPHARMACEUTICAL CO., LTD., priority 2019, published 2022).

What was measured:
CYP1A2 = target: T1, CYP1A2 (Homo sapiens, UniProt P05177); test: CYP enzyme inhibition test, P450-Glo CYP1A2 Screening System; assay type: in vitro ADME; details: for inhibitory effect on CYP1A2: conclusion in words
T1 construct: purchased
T1 sequence (P05177 1-516): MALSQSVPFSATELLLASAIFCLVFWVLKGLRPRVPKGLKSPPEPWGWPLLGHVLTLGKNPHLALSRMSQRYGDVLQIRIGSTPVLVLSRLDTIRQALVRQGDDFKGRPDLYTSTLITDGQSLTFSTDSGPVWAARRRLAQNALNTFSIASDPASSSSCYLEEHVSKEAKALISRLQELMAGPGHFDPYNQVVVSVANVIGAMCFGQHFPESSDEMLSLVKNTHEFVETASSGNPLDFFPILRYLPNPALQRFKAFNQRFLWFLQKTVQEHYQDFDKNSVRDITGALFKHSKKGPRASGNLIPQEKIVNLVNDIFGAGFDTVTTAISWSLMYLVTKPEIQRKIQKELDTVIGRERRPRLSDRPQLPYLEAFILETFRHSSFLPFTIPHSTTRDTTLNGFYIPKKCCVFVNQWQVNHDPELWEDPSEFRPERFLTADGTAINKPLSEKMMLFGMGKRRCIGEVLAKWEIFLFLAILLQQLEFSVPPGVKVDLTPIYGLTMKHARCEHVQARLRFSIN
Protocol: (§1) Experimental Example 6: CYP Enzyme Inhibition Test CYP450 is the most important enzyme system in drug metabolism. The enzymes involved in metabolism interact with drugs, and the most important ones are CYP1A2, CYP2D6 and CYP3A4. P450-Glo™ CYP1A2 Screening System, Vivid® CYP2D6 Cyan Screening Kit and Vivid® CYP3A4 Red Screening Kit were used in this test, and the inhibitory effects of the compounds on CYP1A2, CYP2D6 and CYP3A4 were determined according to the instructions of the kit.

CYP3A4 = target: T2, CYP3A4 (Homo sapiens, UniProt P08684); test: CYP enzyme inhibition test, Vivid CYP3A4 Red Screening Kit; assay type: in vitro ADME; details: for inhibitory effect on CYP3A4: conclusion in words
T2 construct: purchased
T2 sequence (P08684 whole entry): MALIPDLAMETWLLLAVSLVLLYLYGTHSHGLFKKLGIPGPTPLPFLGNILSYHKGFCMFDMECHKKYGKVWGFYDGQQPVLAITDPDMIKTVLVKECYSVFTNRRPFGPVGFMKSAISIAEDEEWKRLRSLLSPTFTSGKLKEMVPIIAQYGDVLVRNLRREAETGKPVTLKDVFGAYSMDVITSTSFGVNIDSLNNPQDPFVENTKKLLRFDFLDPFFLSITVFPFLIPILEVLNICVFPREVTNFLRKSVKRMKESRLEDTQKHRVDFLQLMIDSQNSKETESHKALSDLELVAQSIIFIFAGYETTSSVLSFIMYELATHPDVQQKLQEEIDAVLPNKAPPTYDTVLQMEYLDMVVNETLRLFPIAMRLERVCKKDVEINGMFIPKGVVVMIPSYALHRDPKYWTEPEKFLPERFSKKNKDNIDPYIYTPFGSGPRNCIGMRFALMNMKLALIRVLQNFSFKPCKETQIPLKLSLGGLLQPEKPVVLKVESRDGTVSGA
Protocol: as §1

CYP2D6 = target: T3, CYP2D6 (Homo sapiens, UniProt P10635); test: CYP enzyme inhibition test, Vivid CYP2D6 Cyan Screening Kit; assay type: in vitro ADME; details: for inhibitory effect on CYP2D6: conclusion in words
T3 construct: purchased
T3 sequence (P10635 whole entry): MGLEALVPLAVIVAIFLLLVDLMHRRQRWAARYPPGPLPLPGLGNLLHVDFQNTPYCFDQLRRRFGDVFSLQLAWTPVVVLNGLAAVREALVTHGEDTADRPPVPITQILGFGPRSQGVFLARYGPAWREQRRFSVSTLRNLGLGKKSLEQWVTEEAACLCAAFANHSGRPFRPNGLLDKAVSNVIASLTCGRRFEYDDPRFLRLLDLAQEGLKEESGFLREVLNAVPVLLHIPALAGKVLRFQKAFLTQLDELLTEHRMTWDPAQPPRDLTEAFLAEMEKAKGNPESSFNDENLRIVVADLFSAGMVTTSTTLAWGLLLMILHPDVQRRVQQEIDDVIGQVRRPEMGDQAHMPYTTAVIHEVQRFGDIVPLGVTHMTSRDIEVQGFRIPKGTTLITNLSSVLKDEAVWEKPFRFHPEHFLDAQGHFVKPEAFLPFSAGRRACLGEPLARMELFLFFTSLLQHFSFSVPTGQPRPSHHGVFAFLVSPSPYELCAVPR
Protocol: as §1

hERG potassium channel [1] = target: T4, hERG potassium channel (Homo sapiens, UniProt Q12809); test: cell-based
T4 sequence (Q12809 whole entry): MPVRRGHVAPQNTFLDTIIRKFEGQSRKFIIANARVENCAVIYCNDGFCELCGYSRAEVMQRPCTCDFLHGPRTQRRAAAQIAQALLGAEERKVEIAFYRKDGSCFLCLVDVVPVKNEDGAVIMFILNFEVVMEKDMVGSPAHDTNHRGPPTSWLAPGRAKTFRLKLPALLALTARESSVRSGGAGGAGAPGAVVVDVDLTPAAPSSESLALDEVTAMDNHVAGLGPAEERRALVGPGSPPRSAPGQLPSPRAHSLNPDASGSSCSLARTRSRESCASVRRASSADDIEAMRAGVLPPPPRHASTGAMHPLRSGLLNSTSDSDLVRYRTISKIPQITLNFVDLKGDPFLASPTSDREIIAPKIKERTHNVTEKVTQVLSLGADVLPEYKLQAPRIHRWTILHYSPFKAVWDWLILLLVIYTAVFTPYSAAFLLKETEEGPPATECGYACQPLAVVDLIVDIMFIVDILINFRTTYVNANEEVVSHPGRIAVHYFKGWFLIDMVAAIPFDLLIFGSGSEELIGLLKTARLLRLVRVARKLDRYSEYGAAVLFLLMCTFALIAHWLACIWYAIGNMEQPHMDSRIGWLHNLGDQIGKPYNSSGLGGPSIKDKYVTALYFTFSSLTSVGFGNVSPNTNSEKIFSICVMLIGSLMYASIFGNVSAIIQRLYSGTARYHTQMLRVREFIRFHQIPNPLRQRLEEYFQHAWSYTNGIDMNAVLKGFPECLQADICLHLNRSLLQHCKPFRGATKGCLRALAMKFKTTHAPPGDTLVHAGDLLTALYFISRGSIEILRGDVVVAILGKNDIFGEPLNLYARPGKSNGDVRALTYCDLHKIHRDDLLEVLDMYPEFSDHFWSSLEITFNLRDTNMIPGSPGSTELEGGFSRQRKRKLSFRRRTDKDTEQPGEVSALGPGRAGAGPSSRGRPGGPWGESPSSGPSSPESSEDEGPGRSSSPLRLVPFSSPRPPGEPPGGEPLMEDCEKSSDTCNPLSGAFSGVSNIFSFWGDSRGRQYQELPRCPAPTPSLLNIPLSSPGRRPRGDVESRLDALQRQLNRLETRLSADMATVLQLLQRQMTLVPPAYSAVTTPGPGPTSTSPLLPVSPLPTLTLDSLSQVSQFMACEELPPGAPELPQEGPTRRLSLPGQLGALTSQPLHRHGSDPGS

hERG potassium channel [2] = target: T4, hERG potassium channel; test: in vitro
hERG potassium channel [3] = target: T4, hERG potassium channel

IC50 (CYP1A2) [µM]	inhibitory effect on CYP1A2 (CYP1A2)	IC50 (CYP3A4) [µM]	inhibitory effect on CYP3A4 (CYP3A4)	IC50 (CYP2D6) [µM]	inhibitory effect on CYP2D6 (CYP2D6)	Compound	IC50 (hERG potassium channel [1]) [µM]	inhibition at 10 μM (hERG potassium channel [2]) [%]	inhibitory effect on hERG (hERG potassium channel [3])
> 10	no apparent inhibitory effects	> 10	no apparent inhibitory effects	> 10	no apparent inhibitory effects	C[C@@H](CCO)Nc1cc(N)nc2cc(-c3ccn[nH]3)sc12 [Compound 125, (S)-3-((5-amino-2-(1H-pyrazol-5-yl)thieno[3,2-b]pyridin-7-yl)amino)butanol]			
						Nc1cc(N[C@@H]2CC[C@@H](O)C2)c2sc(-c3ccn[nH]3)cc2n1 [Compound 30, (1R,3R)-3-((5-amino-2-(1H-pyrazol-5-yl)thieno[3,2-b]pyridin-7-yl)amino)cyclopentanol]	> 10	1.91 ± 1.4	no apparent inhibitory effect
> 10	no apparent inhibitory effects	> 10	no apparent inhibitory effects	> 10	no apparent inhibitory effects	C[C@@H]1CN(CCNc2cc(N)nc3cc(-c4ccn[nH]4)sc23)C[C@@H](C)O1 [Compound 124, N^7-(2-((2R,6R)-2,6-dimethylmorpholino)ethyl)-2-(1H-pyrazol-5-yl)thieno[3,2-b]pyridine-5,7-diamine]			
